Source: patent US3991200A, “Substituted nitroimidazolyl thiadiazoles and oxadiazoles as antibacterial agents and growth promoting compounds” (American Cyanamid Company, priority 1973, dated 1976)
Where two headings read alike, the source gives them in different places.

Experiments:
[1] = concentrations of drug in plasma of noninfected mice (agar-diffusion assay); assay type: in vivo; conditions: for Cmax: mouse, read-out: Peak concn. in plasma
Method: Concentrations of drug in plasma are determined by assay of blood obtained by heart puncture of noninfected mice. Blood samples (about 0.5 ml. per mouse) from 10 mice receiving the same dose of drug are pooled. The drug is assayed in the plasma by a standard agar-diffusion plate method with Bacillus subtilis (Lederle No. 17) as the test organism.

[2] = solubility in water; assay type: physicochemical
[3] = system: Pasteurella multocida; assay: controlling a Pasteurella multocida infection in mice; assay type: in vivo, Pasteurella multocida (in Swiss Webster female mice); conditions: 336 h, 2 mg./mouse by gavage, two weeks post-infection, read-out: Survivors/Total (converted)
Method: Swiss Webster, female mice weighing 22±2 g. were infected by intrapeutoneal injection of 0.5 ml. of a 5 hour Trypticase Soy Broth culture containing 10^7 cfu. of P. multocida. Each mouse was given by gavage at the time of infection 2 mg. of the test drug suspended in 0.2% agar.

[4] = system: Staphylococcus aureus strain Rose; assay: antibacterial activity in mice, Tests with Staphylococcus aureus strain Rose; assay type: in vivo, Staphylococcus aureus (in Carworth Farms CFl-s female mice); conditions: read-out: Results alive/tested (converted)
Method: (§1) Experiments were conducted to determine the antibacterial activity of compounds of the present invention against Proteus mirabilis, Staphylococus aureus strain Smith and Staphylococcus aureus strain Rose a tetracycline-resistant strain of Staphylococcus aureus. Infection was initiated in Carworth Farms CFl-s female mice (body weight […].) by intra-abdominal infection of 0.5 ml. of the broth dilutions of 5 hour cultures of the above organisms.

[5] = system: Salmonella gallinarum; assay: controlling fowl typhoid in chicks, medicated feed; assay type: in vivo, Salmonella gallinarum (in sex-linked pullet chicks); conditions: 10 days
Method: Groups of five one-day old sex-linked pullet checks are infected orally by gavage with 0.5 ml. of a 10^-^2 dilution of a five-hour Trypticase Soy Broth culture of Salmonella gallinarum, the causative agent of fowl typhoid. Each chick receives approximately 6 × 10^5 viable cells. Medication is administered continuously in the feed, beginning 3 hours before infection and continuing for 10 days, at which time the test is terminated and the number of survivors in each group recorded. Each test utilizes two control groups of chicks, the first group comprising 20 chicks which are infected and untreated, and the second group comprising 10 chicks which are uninfected and untreated. The results of the tests are set forth in the following Table III (in some instances, the results from two or more tests are combined): […]

[6] = system: bacteria; conditions: prior-art compounds; cited from earlier work
[7] = system: Staphylococcus aureus strain Smith; assay: antibacterial activity in mice, Tests with Staphylococcus aureus strain Smith; assay type: in vivo, Staphylococcus aureus (in Carworth Farms CFl-s female mice); conditions: read-out: Results alive/tested (converted)
Method: as §1

[8] = system: Pasteurella multocida; assay: controlling a Pasteurella multocida infection in mice; assay type: in vivo, Pasteurella multocida (in Swiss Webster female mice); conditions: 336 h, two weeks post-infection, read-out: Survivors/Total (converted); for responders at 0.25 mg: 0.25 mg./mouse by gavage; for responders at 0.5 mg: 0.5 mg./mouse by gavage; for responders at 1 mg: 1 mg./mouse by gavage
[9] = system: Escherichia coli; assay: controlling colibacillosis in chicks infected with Escherichia coli, single oral dose; assay type: in vivo, Escherichia coli (in sex-linked pullet chicks); conditions: 20 chicks tested, 12 days after treatment
Method: Three groups of 10 five-day old sex-linked pullet chicks are infected parenterally, in the left thoracic air sac, with 0.2 ml. of a 10^-^1 dilution of a Trypticase Soy Broth culture of Escherichia coli, the causative agent of colibacillosis in poultry. The compounds to be tested are administered by gavage as a single oral dose in an aqueous solution or suspension, and the chicks are permitted to feed ad libitum the feed composition prepared in Example 44. Twelve days after treatment, the test is terminated and the number of survivors in each group recorded.
Four groups of 40, five-day old sex-linked pullet chicks are infected in the same manner as herein set forth with Escherichia coli. […] Twelve days after treatment, the test is terminated and the number of survivors in each group recorded.

[10] = system: Proteus mirabilis; assay: antibacterial activity in mice, Tests with Proteus mirabilis; assay type: in vivo, Proteus mirabilis (in Carworth Farms CFl-s female mice); conditions: 256 mg/kg
Method: as §1

[11] = system: Salmonella choleraesuis var. kunzendorf; assay: controlling enteritis caused by Salmonella choleraesuis in swine, medicated feed; assay type: in vivo, Salmonella choleraesuis var. kunzendorf (in pigs)
Source text: In the late afternoon of the day before infection, feed is removed from all pens. The following morning each group receives 2.5 lbs. of feed mixed either with normal broth or broth containing Salmonella choleraesuis variety kunzendorf organisms. […] For the rest of the trial the pigs are observed and graded daily. […] The trial is terminated four weeks after infection.

[12] = system: Salmonella choleraesuis var. kunzendorf; assay: controlling enteritis, mice infected with Salmonella choleraesuis, medicated feed; assay type: in vivo; conditions: 10 mice tested
Method: Three groups of ten female Swiss Webster mice weighing 20 gm. are infected intraperitoneally with 0.5 ml. of 10^-^2 dilution of a five-hour Trypticase Soy Broth culture of Salmonella choleraesuis var. kunzendorf, the causitive agent of enteritis in pigs, an organism originally recovered from a field outbreak of Salmonella choleraesuis var. kunzendorf in pigs. Each mouse receives approximately 4.6 × 10^7 cells as the inoculating dose.
The mice are fed a medicated feed, which is a commercial mouse chow containing the compounds to be tested for 3 hours before the infection until 7 days after infection. The mice are held for an additional 7 days after the medication is stopped, and the number of survivors in each group recorded. The medicated feed is prepared by thoroughly admixing calculated amounts of the compounds with commercial mouse chow to provide essentially uniform distribution in the feed offered.

[13] = 0.006% in feed, 10 chicks tested
[14] = 0.025% in feed, 10 chicks tested

Cn1c([N+](=O)[O-])cnc1-c1nnc(N)s1 [2-(2-Amino-5-Thiadiazolyl)-1-methyl-5-nitroimidazole]
absorption, in words ([1]; mice): rapidly absorbed
Cmax ([1]; in vivo, 89 mg/kg): 14000 to 18000 ng/mL
Cmax ([1]; plasma, 0.2 mg/kg): < 1000 ng/mL
Cmax ([1]; plasma, 16 mg/kg): 2000 to 4000 ng/mL
Cmax ([1]; plasma, 56 mg/kg): 6000 to 12000 ng/mL
solubility in water, in words [2]: relatively insoluble in water

CCn1c([N+](=O)[O-])cnc1-c1nnc(N)o1 [2-(2-Amino-5-oxadiazolyl)-1-ethyl-5-nitroimidazole]
responders at 2 mg [3]: 80%
responders at 512 mg/kg [4]: 100%
Survivors ([5]; 0.006% in feed, 5 chicks tested): 3
Survivors ([5]; 0.025% in feed, 5 chicks tested): 5
Survivors ([5]; 0.1% in feed, 10 chicks tested): 10

Cn1c([N+](=O)[O-])cnc1C=NN1CCOC1=O [3-[(1-methyl-5-nitro-2-imidazolylmethylene)amino]-2-oxazolidinone]
antibacterial activity, in words [6]: some antibacterial activity

CN(C)CCCN1CCN(c2nnc(-c3ncc([N+](=O)[O-])n3C)s2)CC1 [2-{2-[4-(3-Dimethylaminopropyl)-1-piperazinyl]-5-thiadiazolyl}-1-methyl-5-nitroimidazole]
responders at 2 mg [3]: 100%
responders at 256 mg/kg [7]: 60%

Cn1c([N+](=O)[O-])cnc1-c1nnc(N)o1 [2-(2-Amino-5-oxadiazolyl)-1-methyl-5-nitroimidazole]
responders at 2 mg [3]: 70%
responders at 0.25 mg [8]: 10%
responders at 0.5 mg [8]: 15%
responders at 1 mg [8]: 40%
responders at 512 mg/kg [4]: 100%
Survivors [5, 13]: 9
Survivors [5, 14]: 10
Survivors ([5]; 0.1% in feed, 10 chicks tested): 10
Survivors ([9]; 5 mg/kg single oral dose): 7
Survivors ([9]; 20 mg/kg single oral dose): 13
Survivors ([9]; 80 mg/kg single oral dose): 15

CN(C)C=Nc1nnc(-c2ncc([N+](=O)[O-])n2C)s1 [2-{2-[ (Dimethylaminomethylene)amino]-5-thiadiazolyl} -1-methyl-5-nitroimidazole]
responders at 2 mg [3]: 100%
Results alive/tested [10]: 3/5
responders at 0.25 mg [8]: 80%
responders at 0.5 mg [8]: 97.5%
responders at 1 mg [8]: 93.3%
Survivors ([5]; 0.05% in feed, 5 chicks tested): 5
Survivors ([5]; 0.1% in feed, 5 chicks tested): 5
responders at 64 mg/kg [7]: 100%

CN(C)c1nnc(-c2ncc([N+](=O)[O-])n2C)s1 [2-(2-Dimethylamino-5-thiadiazolyl)-1-methyl-5-nitroimidazole]
Survivors ([5]; 0.1% in feed, 5 chicks tested): 4
responders at 512 mg/kg ([7]; 512 mg/kg): 80%

O=C1OCCN1/N=C/c1ccc([N+](=O)[O-])o1 [Furazolidone]
Median Survival Time ([11]; 50 ppm in diet): 6.8 days
Survivors Per Total ([11]; 50 ppm in diet ([…] per day nitroimidazole, 2.1 furazolidone)): 0/10
Median Survival Time ([11]; 200 ppm in diet): 10.0 days
Survivors Per Total ([11]; 200 ppm in diet (12.3 mg/kg per day nitroimidazole, 7.5 furazolidone), *9/10 differs significantly from infected-untreated (P<.01)): 2/10

CCOC(=O)N1CCN(c2nnc(-c3ncc([N+](=O)[O-])n3C)s2)CC1 [2[2-(4-Carbethoxy-1-piperazinyl)-5-thiadiazolyl]-1-methyl-5-nitroimidazole]
responders at 256 mg/kg [7]: 80%

CNc1nnc(-c2ncc([N+](=O)[O-])n2C)s1 [2-(2-Methylamino-5-thiadiazolyl)-1-methyl-5-nitroimidazole]
Results alive/tested [10]: 4/5
responders at 512 mg/kg [4]: 80%
Survivors ([5]; 0.1% in feed, 5 chicks tested): 3

CCn1c([N+](=O)[O-])cnc1-c1nnc(N)s1 [2-(2-Amino-5-thiadiazolyl)-1-ethyl-5-nitroimidazole]
responders at 2 mg [3]: 100%
Survivors ([12]; 0.025% in mouse chow): 3
Survivors ([12]; 0.1 % in mouse chow): 9
responders at 512 mg/kg [4]: 100%
Survivors [5, 14]: 9
Survivors ([5]; 0.1% in feed, 10 chicks tested): 10

Cn1c([N+](=O)[O-])cnc1-c1nnc(NC=O)s1 [2-(2-Formamido-5-Thiadiazolyl)-1-methyl-5-nitroimidazole]
responders at 2 mg [3]: 100%
responders at 0.25 mg [8]: 80%
responders at 0.5 mg [8]: 100%
responders at 1 mg [8]: 90%
responders at 512 mg/kg [4]: 100%
Survivors ([5]; 0.006% in feed, 15 chicks tested): 9
Survivors ([5]; 0.025% in feed, 15 chicks tested): 11
Survivors ([5]; 0.1% in feed, 10 chicks tested): 5
responders at 64 mg/kg [7]: 100%

Cn1c([N+](=O)[O-])cnc1C=NN1CCNC1=O [1-[(1-methyl-5-nitro-2-imidazolylmethylene)amino]-2-imidazolidinone]
antibacterial activity, in words [6]: some antibacterial activity

CN(C)c1nnc(-c2ncc([N+](=O)[O-])n2C)o1 [2-(2-Dimethylamino-5-oxadiazolyl)-1-methyl-5-nitroimidazole]
responders at 512 mg/kg [4]: 100%
Survivors [5, 13]: 2
Survivors [5, 14]: 9
Survivors ([5]; 0.1% in feed, 10 chicks tested): 9
